Test results taken from patent publication US20050208149A1, “Use of arsenic-containing pharmaceutical composition in combination with radiation therapy for cancer treatment” (TTY Biopharm Limited Company, priority 2004, published 2005).
Values joined by “and” are separate entries in the source; they are usually repeats but may differ in a detail not shown here. Equal entries are not always repeated.

What was measured:
[1] = Wang Z. Y. 2001; cited from earlier work
[2] = system: human cervical tumor xenografts; settings: As2O3 pre-treatment in combination with ionizing radiation; Chun 2002; cited from earlier work
[3] = system: breast cancer patients with superficial fungating or skin-infiltrating tumors; test: Assessment of response: topical As2O3 gel plus electron beam radiotherapy; assay type: in vivo, human; set-up: key to Tumor response: Complete: A complete response was defined as the disappearance of all known skin lesions within radiation fields confirmed by subsequent observation at least 4 weeks apart; Partial: a decrease in the sum of the maximal perpendicular diameters for involved skin area within radiation fields by more than 50%; Progressive: at least 25% increase in the sum of the maximal perpendicular diameters for involved skin area or the appearance of new lesions within radiation fields; Stable: All other tumor outcomes were classified as stable disease; settings: for Reduction in VAS for skin pain: 100-mm scale
Excerpt: (§1) Between December 2001 and March 2003, seven patients of breast cancer with superficial fungating or skin-infiltrating tumors who had undergone standard treatments received topical As2O3 and radiotherapy at Mackay Memorial Hospital (Table 3). Eligibility criteria for the study included diagnosis of breast cancer confirmed by pathological examination. In addition, patients had to have relapsed after standard treatments such as surgery, radiation therapy or chemotherapy. Six patients had received post-operative radiation to the chest wall and axillary area. Written informed consent was required, and the study protocol was viewed and approved by the institutional review board of the Mackay Memorial Hospital.
(§2) As2O3 gel prepared by Example 2 was administered in daily topical doses that ranged from 0.01 to 0.5 mg/cm2/day, preferred from 0.05-0.15 mg/cm2/day. The gel was administered 1 h prior to the daily radiation treatment and was subsequently removed 5 min prior to the radiation exposure. Electron beam radiotherapy was delivered using a linear accelerator (9-12 MeV, dose rate 2.4 Gy/min; Clinac 1800; Varian Associates, Palo Alto, Calif.). Radiation was administered 5 days a week (total dose: 50 Gy in 25 fractions or 30 Gy in 10 fractions).
Observation for tumor response and skin reaction was conducted daily, with photographs taken weekly. A complete response was defined as the disappearance of all known skin lesions within radiation fields confirmed by subsequent observation at least 4 weeks apart. A partial response was defined as a decrease in the sum of the maximal perpendicular diameters for involved skin area within radiation fields by more than 50% which was confirmed by subsequent observation at least 4 weeks apart. Progressive disease was defined as at least 25% increase in the sum of the maximal perpendicular diameters for involved skin area or the appearance of new lesions within radiation fields. All other tumor outcomes were classified as stable disease. For efficacy of pain control, chest wall pain was estimated using a visual analog scale (VAS) as a subjective assessment. The VAS scores before treatment were set as the baseline for every patient, and we compared the changes between subsequent data after treatment and the baseline data. When differences were greater than 50 mm in a 100-mm scale, we identified this patient as a responder. The daily need for changing dressings (CD) of wounds was also recorded by nurses in charge of each patient.

[4] = system: cutaneous metastatic breast cancer; settings: topical As2O3 alone; Cheng 2003; cited from earlier work
[5] = system: human cervical cancer cells; settings: As2O3 pre-treatment in combination with ionizing radiation; Chun 2002; cited from earlier work
[6] = system: breast cancer patients with superficial fungating or skin-infiltrating tumors; test: Monitoring for adverse effects (CTC version 2.0) during combined topical As2O3 and radiation treatment; assay type: in vivo, human; settings: for Acute radiation dermatitis, case number / Anorexia, case number / Chronic radiation dermatitis, case number / Fatigue, case number / Granulocytosis, case number / Hyperpigmentation, case number / Leukopenia, case number / Nausea, case number / Thrombocytopenia, case number / Vomit, case number: of 7 patients, topical As2O3 + radiation
Excerpt: as §1, §2
With regard to drug absorption via skin, possible systemic adverse effects were evaluated. Serial blood counts and serum chemistry profiles were performed. Serum chemistry profiles, including alanine aminotransferase, aspartate aminotransferase, blood urine nitrogen and creatinine, were measured using a Synchron LX20 spectrophotometer (Beckman Coulter, San Diego, Calif.). An electrocardiogram was recorded before and after irradiation for each patient. Adverse effect and toxicity were evaluated according to the Common Toxicity Criteria (CTC) version 2.0 published by the DCTD, NCI, NIH and DHHS in 1999.

[7] = combination of topical As2O3 and radiation, pilot study, seven patients
[8] = patient 1, skin infiltration, topical As2O3 gel + radiation 50 Gy
[9] = patient 2, skin infiltration, topical As2O3 gel + radiation 50 Gy
[10] = patient 3, skin infiltration, topical As2O3 gel + radiation 50 Gy
[11] = patient 4, fungating tumor, topical As2O3 gel + radiation 50 Gy
[12] = patient 5, fungating tumor, topical As2O3 gel + radiation 50 Gy
[13] = patient 6, fungating tumor, topical As2O3 gel + radiation 30 Gy
[14] = patient 7, fungating tumor, topical As2O3 gel + radiation 50 Gy

S1[As]2S[As]3S[As]2S[As]13 [As4S4, tetraarsenic tetraslfide]
Complete remission rate [1]: 84.9%

arsenic trioxide [As2O3]
Effect on regression of established xenografts [2]: synergistic effect
Change in mean daily needed CD frequency ([3]; after treatment for 1 month, all superficial and fungating wounds): 4.4 to 0.9
Number of patients resistant, classified as stable disease ([3]; chest wall fungating tumor, of seven patients, combined therapy): One
Number of patients with partial remission ([3]; chest wall fungating tumors, of seven patients, combined therapy): three
Number of patients with complete remission ([3]; chest wall skin-infiltrating lesions, of seven patients, combined therapy): three
Clinical response rate, complete remission [3, 7]: 42.9%
Clinical response rate, partial remission [3, 7]: 42.9%
Number of patients with relief of chest wall pain assessed by VAS ([3]; of seven patients, combined therapy): seven
Tumor response [3, 8]: Complete
Reduction in VAS for skin pain [3, 8]: 75 mm
Tumor response [3, 9]: Complete
Reduction in VAS for skin pain [3, 9]: 65 mm
Tumor response [3, 10]: Complete
Reduction in VAS for skin pain [3, 10]: 80 mm
Tumor response [3, 11]: Partial (a decrease in the sum of the maximal perpendicular diameters for involved skin area within radiation fields by more than 50%)
Reduction in VAS for skin pain [3, 11]: 70 mm
Tumor response [3, 12]: Partial (a decrease in the sum of the maximal perpendicular diameters for involved skin area within radiation fields by more than 50%)
Reduction in VAS for skin pain [3, 12]: 65 mm
Tumor response [3, 13]: Partial (a decrease in the sum of the maximal perpendicular diameters for involved skin area within radiation fields by more than 50%)
Reduction in VAS for skin pain [3, 13]: 75 mm
Tumor response [3, 14]: Stable
Reduction in VAS for skin pain [3, 14]: 55 mm
Cumulative radiation dosage for remission of chest wall skin lesions ([3]; the three patients with complete remission, respectively): 20 Gy and 22 Gy and 28 Gy
Local tumor control and wound secretion [4]: improved local tumor control and decreased wound secretion
Systemic absorption, pharmacokinetic study [4]: no significant systemic absorption
Systemic or local adverse effects [4]: without significant systemic or local adverse effects
Effect on decreased clonogenic survival [5]: synergistic effect
Acute radiation dermatitis, case number ([6]; CTC grade 0): 1
Anorexia, case number ([6]; CTC grade 0): 4
Chronic radiation dermatitis, case number ([6]; CTC grade 0): 4
Fatigue, case number ([6]; CTC grade 0): 3
Granulocytosis, case number ([6]; CTC grade 0): 6
Hyperpigmentation, case number ([6]; CTC grade 0): 7
Leukopenia, case number ([6]; CTC grade 0): 7
Nausea, case number ([6]; CTC grade 0): 4
Thrombocytopenia, case number ([6]; CTC grade 0): 7
Vomit, case number ([6]; CTC grade 0): 6
Acute radiation dermatitis, case number ([6]; CTC grade 1): 1
Anorexia, case number ([6]; CTC grade 1): 2
Chronic radiation dermatitis, case number ([6]; CTC grade 1): 2
Fatigue, case number ([6]; CTC grade 1): 2
Granulocytosis, case number ([6]; CTC grade 1): 1
Hyperpigmentation, case number ([6]; CTC grade 1): 0
Leukopenia, case number ([6]; CTC grade 1): 0
Nausea, case number ([6]; CTC grade 1): 2
Thrombocytopenia, case number ([6]; CTC grade 1): 0
Vomit, case number ([6]; CTC grade 1): 1
Acute radiation dermatitis, case number ([6]; CTC grade 2): 3
Anorexia, case number ([6]; CTC grade 2): 1
Chronic radiation dermatitis, case number ([6]; CTC grade 2): 1
Fatigue, case number ([6]; CTC grade 2): 2
Granulocytosis, case number ([6]; CTC grade 2): 0
Hyperpigmentation, case number ([6]; CTC grade 2): 0
Leukopenia, case number ([6]; CTC grade 2): 0
Nausea, case number ([6]; CTC grade 2): 1
Thrombocytopenia, case number ([6]; CTC grade 2): 0
Vomit, case number ([6]; CTC grade 2): 0
Acute radiation dermatitis, case number ([6]; CTC grade 3): 2
Anorexia, case number ([6]; CTC grade 3): 0
Chronic radiation dermatitis, case number ([6]; CTC grade 3): 0
Fatigue, case number ([6]; CTC grade 3): 0
Granulocytosis, case number ([6]; CTC grade 3): 0
Leukopenia, case number ([6]; CTC grade 3): 0
Nausea, case number ([6]; CTC grade 3): 0
Thrombocytopenia, case number ([6]; CTC grade 3): 0
Vomit, case number ([6]; CTC grade 3): 0
Acute radiation dermatitis, case number ([6]; CTC grade 4): 0
Anorexia, case number ([6]; CTC grade 4): 0
Chronic radiation dermatitis, case number ([6]; CTC grade 4): 0
Fatigue, case number ([6]; CTC grade 4): 0
Granulocytosis, case number ([6]; CTC grade 4): 0
Leukopenia, case number ([6]; CTC grade 4): 0
Thrombocytopenia, case number ([6]; CTC grade 4): 0
Vomit, case number ([6]; CTC grade 4): 0
Time to satisfactory healing of grade 3 acute radiation dermatitis ([6]; after completion of the radiation treatment): 2-3 weeks
Hematological changes ([6]; combined treatment): no significant hematological changes were observed
Number of patients with grade 3 acute radiation dermatitis (most severe observed) ([6]; combined treatment): two
Other adverse reactions ([6]; combined treatment): light-headedness during irradiation and moderate fatigue after radiation
Patients developing grade 3 chronic radiation dermatitis ([6]; combined treatment): none
Performance status ([6]; combined treatment): no changes in performance status were evident
Dermatological toxicity such as skin rash ([6]; daily application less than 1 h, treatment not more than 5 weeks): we did not note any toxicity of this type
Grade 2-4 granulocytosis or leukopenia ([6]; during the combined therapy): No grade 2-4 granulocytosis or leukopenia was noted
Skin pigmentation, renal or hepatic function ([6]; during the course of the combined treatment): no skin pigmentation or significant changes in renal or hepatic function
